From patent US9701651B2, “Methods of treating an overweight or obese subject” (Zafgen, Inc., priority 2008, dated 2017)
Entries after “also recorded” stand apart in the source; their conditions may differ.

System: DIO mice
Experiment: Weight loss study in diet-induced obese mice (oral administration)
Type: in vivo, C57BL/6NTac mice
Details: 1.0 mg/kg orally in 10% gelucire in deionised water, once a day for 7 days; mice on 60% fat diet; over the course of the 8 days; compared with vehicle group
Protocol: A weight loss study was conducted in obese mice. The mice in this study were not genetically obese, but prior to and during the study, obesity was induced by a high-fat diet. Twelve week-old C57BL/6NTac mice, maintained on a 60% fat diet prior to and during the study, were separated into seven groups, eight animals per group. Average body weight of the mice was approximately 47 g at the start of the study.
Each of […] groups was orally administered 1.0 mg/kg of a compound (fumagillin and compounds B. C, D, E, F and G), in 10% gelucire in deionised water. Compounds B-G are as follows:
Each of these six groups was administered a different compound. One group was orally administered fumagillin at 1.0 mg/kg (ZGN-201) in 10% gelucire in deionised water, and one group was administered ([…] in deionised water(vehicle). Mice received administrations once a day for 7 days.
(Data analyzed by ANCOVA with body weight on Day 1 as covariate followed by multiple tests against vehicle group: *p<0.05; **p<0.01, ***p<0.001.)

SMILES | effect on body weight (weight loss)
CO[C@@H]1[C@H](OC(=O)/C=C/C=C/C=C/C=C/C(=O)O)CC[C@]2(CO2)[C@H]1[C@@]1(C)O[C@@H]1CC=C(C)C [fumagillin, reference compound] | lost the most weight
CO[C@@H]1[C@H](OC(=O)N[C@@H](C(N)=O)C(C)C)CC[C@]2(CO2)[C@H]1[C@@]1(C)O[C@@H]1CC=C(C)C [B] | lost weight
CO[C@@H]1[C@H](OC(=O)N[C@@H](C(=O)NCCN2CCCC2)C(C)C)CC[C@]2(CO2)[C@H]1[C@@]1(C)O[C@@H]1CC=C(C)C [E] | lost weight
CO[C@@H]1[C@H](OC(=O)N[C@@H](C(=O)NCCC2CCCN2C)C(C)C)CC[C@]2(CO2)[C@H]1[C@@]1(C)O[C@@H]1CC=C(C)C (some centres unmarked) [D] | lost weight
CO[C@@H]1[C@H](OC(=O)NCCC2CCCN2C)CC[C@]2(CO2)[C@H]1[C@@]1(C)O[C@@H]1CC=C(C)C (some centres unmarked) [C] | lost weight; also recorded: losing the most weight of these four groups
